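Protocol summary: plate cells (96-well), add compound at 5 concentrations, incubate 48 h, interpolate endpoints linearly. The concentration for 50% growth inhibition is given as GI50. TGI denotes the concentration required for complete inhibition of growth.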
How the values were obtained:
Test in all cases: inhibition of tumour cell growth, NCI panel, 48 h
[1] = test system: ACHN renal
[2] = test system: HCT-116 colon
[3] = test system: HCT-15 colon
[4] = test system: HT29 colon
[5] = test system: MALME-3M melanoma
[6] = test system: OVCAR-5 ovarian
[7] = test system: SF-295 CNS
[8] = test system: U251 CNS
[9] = test system: PC-3 prostate
[10] = test system: T-47D breast

| SMILES | TGI [1] [µM] | TGI [2] [µM] | TGI [3] [µM] | TGI [4] [µM] | TGI [5] [µM] | TGI [6] [µM] | TGI [7] [µM] | TGI [8] [µM] | TGI [9] [µM] | TGI [10] [µM] | GI50 [1] [µM] | GI50 [2] [µM] | GI50 [3] [µM] | GI50 [4] [µM] | GI50 [5] [µM] | GI50 [6] [µM] | GI50 [9] [µM] | GI50 [7] [µM] | GI50 [8] [µM] | GI50 [10] [µM] |
| --- | --- | --- | --- | --- | --- | --- | --- | --- | --- | --- | --- | --- | --- | --- | --- | --- | --- | --- | --- | --- |
| CC1(O)CC2C(CC1SCCO)C2(C)C (stereo unspecified) | > 100 | > 100 | > 100 | > 100 | > 100 | > 100 | > 100 | > 100 |  |  |  |  |  |  |  |  |  |  |  |  |
| O=C1Nc2ccccc2C1Cc1ccccc1 (stereo unspecified) | > 100 | > 100 | > 100 | > 100 | > 100 | > 100 |  | > 100 | > 100 | > 100 |  |  |  |  |  |  |  |  |  |  |
| O=c1c2ccc3cccc4c(=O)cc(c5ccccc15)-c2c34 | > 100 | > 100 | > 100 | > 100 | > 100 | > 100 | > 100 | > 100 |  |  |  |  |  |  |  |  |  |  |  |  |
| O=C1c2ccccc2C(=O)N1c1ccc(S(=O)(=O)Nc2ncccn2)cc1 | > 100 | > 100 | > 100 | > 100 | > 100 | > 100 | > 100 | > 100 | > 100 |  | > 100 | > 100 | > 100 | > 100 | > 100 | > 100 | > 100 | > 100 | > 100 |  |
| O=C1CCCC/C1=C/C=C/c1ccccc1 | > 100 | > 100 |  | > 100 | > 100 | > 100 | > 100 | > 100 |  |  |  |  |  |  |  |  |  |  |  |  |
| COc1cc(CSc2nc3ccc(C)cc3c(=O)n2Cc2ccccc2)cc(OC)c1OC | 55.7 | 48.9 | > 100 | 80.8 | 34.3 | > 100 |  | 20.8 | > 100 | 32.6 | 3.89 | 2.08 | 0.773 | 0.595 | 3.09 | 4.82 | 2.66 |  | 3.2 | 2.98 |
| O=C(Nc1c(-c2nc3ccccc3[nH]2)sc(=S)n1-c1ccccc1)c1ccccc1 | > 100 |  | > 100 | > 100 | > 100 | > 100 | > 100 | > 100 |  |  |  |  |  |  |  |  |  |  |  |  |
| COc1cnc2c(c1)C(=O)c1c-2n(CCCn2ccnc2)c(=O)c2cc(Cl)ccc12 | 61.4 | 0.216 | > 100 |  | 37.4 | 35 | 0.0794 | 0.119 | > 100 | 0.309 | 0.0301 | 0.0147 | 0.159 |  | 0.293 | 0.309 | 0.0667 | 0.0251 | 0.0144 | 0.0263 |
| C=CC1CC12C(=O)C1OC2(C)C2C(=O)c3c(ccc4c3ccc3ccccc34)C(=O)C12 (stereo unspecified) | 88.1 | > 100 | 80.6 | > 100 | > 100 | > 100 |  | 87.6 | > 100 | > 100 | 27.5 | 52.6 | 14.2 | 91.6 | 16.8 | > 100 | 35.6 |  | 26.7 | 19.7 |

— PubChem BioAssay (NCI)
